Measurements published in patent publication US20060160905A1, “Compositions and methods for inhibiting pain” (priority 2005, published 2006).

System: acetic acid-induced visceral pain
Test: acetic acid-induced visceral pain mouse model (writhing/stretch count)
Assay type: in vivo, mice (male Harlan ICR)
Conditions: for number of stretches (writhes) per 30 minutes: 0.75% acetic acid IP half an hour later, control mice typically stretch 65-70 times/30 minutes; for effect on inhibiting visceral pain (stretches vs. control mice), in words: doses from 0.37 mg/kg to 30.0 mg/kg SC
Procedure: The acetic acid-induced visceral pain mouse model test is, of course, well known to those skilled in the art and is described in the seminal paper by Collier et al [Collier, H. O. J., L. C. Dinneen, C. A. Johnson and C. Schneider 1968. The abdominal constriction response and its suppression by analgesic drugs in the mouse.
The drugs are identified below as Monoamine #1-6. Five groups of five mice (male Harlan ICR, weight 35-50 g) were used to test each of the drugs. Control animals were tested as part of each experiment as well. The mice in each group were weighed and identified with a tail marking and were given a single dose of one of the drugs at 1 ml/100 g SC. The first group served as controls and was given only saline; the other five groups were given a drug at five doses ranging from 0.37 mg/kg up to 30.0 mg/kg. After the drug was administered, the mice were allowed to acclimate for one-half hour and were then given an IP injection of 0.75% Glacial acetic acid at a volume of 1 ml/100 g. Once the acid was injected, the mice were put into individual clear containers for observation. The mice were then watched continuously for one-half hour and the number of “stretches” or writhes were counted. The animal was considered to be stretching when its front legs stepped forward and at least one hind leg was extended out behind them. At the end of the thirty-minute observational period the mice were sacrificed with CO2. The same procedure was followed for all of the different compounds examined.

CCNCCc1ccccc1O.Cl [Monoamine #1, 2-[2-(Ethylamino)ethyl]phenol Hydrochloride]
number of stretches (writhes) per 30 minutes (10 mg/kg SC single dose): 25.9±14.8 stretches/30 minutes
number of stretches (writhes) per 30 minutes (30 mg/kg SC single dose): 13.1±11.7 stretches/30 minutes
effect on inhibiting visceral pain (stretches vs. control mice), in words (Hydrochloride): statistical significance at all doses tested
effect on inhibiting visceral pain (stretches vs. control mice), in words (listed as #1, Hydrochloride): effective at all of the doses tested

CCNCCCc1ccccc1O.Cl [Monoamine #2]
number of stretches (writhes) per 30 minutes (30 mg/kg SC single dose): 47.7±22.4 stretches/30 minutes
effect on inhibiting visceral pain (stretches vs. control mice), in words: only a minimal effect on inhibiting visceral pain
effect on inhibiting visceral pain (stretches vs. control mice), in words (listed as #2): little/no effect

CCNCCCCc1ccccc1O [Monoamine #3]
effect on inhibiting visceral pain (stretches vs. control mice), in words: significantly fewer stretches than the control mice
effect on inhibiting visceral pain (stretches vs. control mice), in words (listed as #3): effective at all of the doses tested

CCN(CCCc1ccccc1O)Cc1ccccc1.CS(=O)(=O)O [Monoamine #4]
effect on inhibiting visceral pain (stretches vs. control mice), in words: not effective against visceral pain
effect on inhibiting visceral pain (stretches vs. control mice), in words (listed as #4): little/no effect

CCNCCCCC1CCCCC1 [Monoamine #5, N-(4-cyclohexylbutyl)-N-ethylamine]
effect on inhibiting visceral pain (stretches vs. control mice), in words: significantly fewer stretches than the control mice
effect on inhibiting visceral pain (stretches vs. control mice), in words (listed as #5): effective at all of the doses tested

CCCCCCNC1CCCCC1 [Monoamine #6, N-hexylcyclohexanamine]
effect on inhibiting visceral pain (stretches vs. control mice), in words: not effective against visceral pain
effect on inhibiting visceral pain (stretches vs. control mice), in words (listed as #6): little/no effect
